In US12180139B2, “Method for preparing aminoalkanoic acid derivative containing biphenyl group” (AMTIXBIO CO., LTD., priority 2019, dated 2024):

How the values were obtained:
B. cereus (+) = assay: Antibacterial MIC test (CLSI); type: cell-based; details: MHB liquid medium, 37° C., 24 hours
Procedure: (§1) The MIC test was conducted in accordance CLSI guidelines. […] As a positive control, Nofloxacin and Vancomycin were used.

B. coagulans (+) = assay: Antibacterial MIC test (CLSI); type: cell-based; details: MHB liquid medium, 37° C., 24 hours
Procedure: as §1

B. subtilis (+) = assay: Antibacterial MIC test (CLSI); type: cell-based; details: MHB liquid medium, 37° C., 24 hours
Procedure: as §1

E. coli (−) = assay: Antibacterial MIC test (CLSI); type: cell-based; details: MHB liquid medium, 37° C., 24 hours
Procedure: as §1

L. monocytogenes (+) = assay: Antibacterial MIC test (CLSI); type: cell-based; details: MHB liquid medium, 37° C., 24 hours
Procedure: as §1

M. luteus (+) = assay: Antibacterial MIC test (CLSI); type: cell-based; details: MHB liquid medium, 37° C., 24 hours
Procedure: as §1

P. acnes (+) = assay: Antibacterial MIC test (CLSI); type: cell-based; details: MHB liquid medium, 37° C., 24 hours
Procedure: as §1

S. aureus enterica (−) = assay: Antibacterial MIC test (CLSI); type: cell-based; details: MHB liquid medium, 37° C., 24 hours
Procedure: as §1

S. aureus (+) = details: MHB liquid medium, 37° C., 24 hours
Procedure: (§2) The antibacterial activities against Gram-positive bacteria, Gram-negative bacteria or multi-drug resistant bacteria were evaluated for the compounds of the present invention. The MIC test was conducted in accordance CLSI guidelines. E. coli(−), P. aeruginosa(−), and S. enterica(−) were used as Gram-negative bacteria, B. cereus(+), B. subtilis(+), B. coagulans(+), L. monocytogenes(+), M. luteus(+), P. acnes(+), S. epidermidis(+), and S. aureus(+) were used as Gram-positive bacteria. Methicillin-resistant Staphylococcus aureus (MRSA) was used as multi-drug resistant bacteria. The bacterial cells were incubated until the OD600 of the single colonies reached 0.1. […] Subsequently, bacterial cells were incubated at 37° C. for 24 hours, and then the MICs (μg/ ? ) were determined by visual reading and optical density detection at 600 nm (OD600). As a positive control, Nofloxacin and Vancomycin were used.

S. epidermidis (+) = details: MHB liquid medium, 37° C., 24 hours
Procedure: as §2

MRSA = assay: Antibacterial MIC test (CLSI); type: cell-based, Methicillin-resistant Staphylococcus aureus; details: MHB liquid medium, 37° C., 24 hours
Procedure: as §1

C. neoformans = details: RPMI1640 broth, 35° C., 72 hours, visual reading; expressed as a range value
Procedure: (§3) An in vitro antifungal susceptibility test was performed in accordance with the US Clinical and Laboratory Standards Institute (CLSI) guidelines to measure the degree of antifungal activity of the compounds synthesized in the Preparation Examples against opportunistic pathogenic fungi. […] The MIC value (μg/ ? ) is expressed as a range value. Specifically, Candida species and Cryptococcus neoformans were incubated in a Sabouraud dextrose agar (SDA) (Sigma-Aldrich) solid medium for 24 and 48 hours, respectively to obtain single colonies. The obtained single colonies were suspended in 0.85% physiological saline to prepare fungal cell suspension (1 to 5×10^6 cells/ ? ). Fungal cells 2000-fold diluted in RPMI1640 broth (Sigma-Aldrich) were seeded on 96-well plates (5×10^2 to 2.5×10^3 cells/ ? , 195 ? /well). Serial two-fold dilutions (128, 64, 32, 16, 8, 4, 2, 1, and 0.5 μg/ ? ) of compounds were prepared by diluting the compounds synthesized according to the above preparation examples. Then, 5 ? from each dilution was added to the well of the 96-well plate containing fungal cell suspension to give a final suspension of 200 ? per well. […] As a positive control, amphotericin B (AMB), which is highly toxic to the human body but is known as a representative antifungal agent, was used.

C. albicans = details: RPMI1640 broth, 35° C., 48 hours, visual reading; expressed as a range value
Procedure: as §3

C. glabrata = details: RPMI1640 broth, 35° C., 48 hours, visual reading; expressed as a range value
A. fumigatus = details: visual reading; expressed as a range value
Procedure: as §3

| SMILES | MIC B. cereus (+) (B. cereus (+)) | MIC B. coagulans (+) (B. coagulans (+)) | MIC B. subtilis (+) (B. subtilis (+)) | MIC E. coli (−) (E. coli (−)) | MIC L. monocytogenes (+) (L. monocytogenes (+)) | MIC M. luteus (+) (M. luteus (+)) | MIC P. acnes (+) (P. acnes (+)) | MIC S. aureus enterica (−) (S. aureus enterica (−)) | MIC S. aureus (+) (S. aureus (+)) | MIC S. epidermidis (+) (S. epidermidis (+)) | MIC MRSA (MRSA) | MIC (μg/mL) C. neoformans (C. neoformans) | MIC (μg/mL) C. albicans (C. albicans) | MIC (μg/mL) C. glabrata (C. glabrata) | MIC (μg/mL) A. fumigatus (A. fumigatus) |
| --- | --- | --- | --- | --- | --- | --- | --- | --- | --- | --- | --- | --- | --- | --- | --- |
| CCCC(NC)C(=O)Nc1ccc(-c2ccc(Cl)c(Cl)c2)cc1.Cl (racemic) [Compound 34, (R)/(S)-N-(3′,4′-dichloro-[1,1′-biphenyl]-4-yl)-2-(methylamino)pentanamide hydrochloride] | 8 µg/mL | <4 µg/mL | <4 µg/mL | 8 µg/mL | <4 µg/mL | <4 µg/mL | <4 µg/mL | 32 µg/mL | <4 µg/mL | <4 µg/mL | <4 µg/mL | 2~8 μg/mL | 4~16 μg/mL | 8~32 μg/mL | 8~32 μg/mL |
| CCCCC(NC)C(=O)Nc1ccc(-c2ccc(Cl)c(Cl)c2)cc1.Cl (racemic) [Compound 35, (R)/(S)-N-(3′,4′-dichloro-[1,1′-biphenyl]-4-yl)-2-(methylamino)hexanamide hydrochloride] | <4 µg/mL | <4 µg/mL | <4 µg/mL | <4 µg/mL | >64 µg/mL | <4 µg/mL | <4 µg/mL | 64 µg/mL | 8 µg/mL | <4 µg/mL | <4 µg/mL | 0.5~4 μg/mL | 0.5~4 μg/mL | 0.5~4 μg/mL | 0.5~4 μg/mL |
| CCCCC(N)C(=O)NCc1ccc(-c2ccc(Cl)c(Cl)c2)cc1.Cl (racemic) [Compound 46, (R)/(S)-2-amino-N-((3′,4′-dichloro-[1,1′-biphenyl]-4-yl)methyl)hexanamide hydrochloride] | 16 µg/mL | 4 µg/mL | 8 µg/mL | 32 µg/mL | 8 µg/mL | 8 µg/mL | 8 µg/mL | 32 µg/mL | 8 µg/mL | 8 µg/mL | 8 µg/mL | 0.5~4 μg/mL | 2~8 μg/mL | 2~8 μg/mL | 2~8 μg/mL |
| CCCC(NC)C(=O)NCc1ccc(-c2ccc(Cl)c(Cl)c2)cc1.Cl (racemic) [Compound 51, (R)/(S)-N-((3′,4′-dichloro-[1,1′-biphenyl]-4-yl)methyl)-2-(methylamino)pentanamide hydrochloride] | 32 µg/mL | 4 µg/mL | 16 µg/mL | >32 µg/mL | 16 µg/mL | 16 µg/mL | 16 µg/mL | >32 µg/mL | 16 µg/mL | 16 µg/mL | 16 µg/mL | 2~8 μg/mL | 4~16 μg/mL | 4~16 μg/mL | 4~16 μg/mL |
| CCC(N)C(=O)NCCc1ccc(-c2ccc(Cl)c(Cl)c2)cc1.Cl (racemic) [Compound 73, (R)/(S)-2-amino-N-(2-(3′,4′-dichloro-[1,1′-biphenyl]-4-yl)ethyl)butanamide hydrochloride] | 32 µg/mL | <4 µg/mL | 8 µg/mL | 8 µg/mL | 8 µg/mL | 8 µg/mL | 8 µg/mL | 16 µg/mL | 8 µg/mL | 8 µg/mL | 8 µg/mL | 2~8 μg/mL | 8~32 μg/mL | 8~32 μg/mL | 8~32 μg/mL |
| CCCCC(N)C(=O)NCCc1ccc(-c2ccc(C(F)(F)F)cc2)cc1.Cl (racemic) [Compound 78, (R)/(S)-2-amino-N-(2-(4′-(trifluoromethyl)-[1,1′-biphenyl]-4-yl)ethyl)hexanamide hydrochloride] | 16 µg/mL | <4 µg/mL | <4 µg/mL | 8 µg/mL | <4 µg/mL | 8 µg/mL | >64 µg/mL | 16 µg/mL | 8 µg/mL | 8 µg/mL | 8 µg/mL | 2~8 μg/mL | 4~16 μg/mL | 4~16 μg/mL | 4~16 μg/mL |
| CCC(N)C(=O)NCCc1ccc(-c2ccc(OC(F)(F)F)cc2)cc1.Cl (racemic) [Compound 79, (R)/(S)-2-amino-N-(2-(4′-(trifluoromethoxy)-[1,1′-biphenyl]-4-yl)ethyl)butanamide hydrochloride] | 64 µg/mL | <4 µg/mL | 16 µg/mL | 16 µg/mL | 16 µg/mL | 16 µg/mL | 16 µg/mL | 32 µg/mL | 16 µg/mL | 8 µg/mL | 16 µg/mL | 8~32 μg/mL | 8~32 μg/mL | 8~32 μg/mL | 8~32 μg/mL |
